How the values were obtained:
NADPH oxidase (NOX2) = target: T1, NADPH oxidase (NOX2) (Homo sapiens, UniProt P14598); assay: NADPH oxidase activity by lucigenin chemiluminescence in HL-60 membrane preparations; type: biochemical; conditions: PMA 0.8 µM, compound 50 µM, vs control
T1 construct: HL-60 cells expressed the components of NOX2, including gp91, p22^phox, p47^phox, and p67^phox; endogenous in cells; whole cells in A1, membrane preparations in A3 and A4
T1 sequence (P14598 1-390): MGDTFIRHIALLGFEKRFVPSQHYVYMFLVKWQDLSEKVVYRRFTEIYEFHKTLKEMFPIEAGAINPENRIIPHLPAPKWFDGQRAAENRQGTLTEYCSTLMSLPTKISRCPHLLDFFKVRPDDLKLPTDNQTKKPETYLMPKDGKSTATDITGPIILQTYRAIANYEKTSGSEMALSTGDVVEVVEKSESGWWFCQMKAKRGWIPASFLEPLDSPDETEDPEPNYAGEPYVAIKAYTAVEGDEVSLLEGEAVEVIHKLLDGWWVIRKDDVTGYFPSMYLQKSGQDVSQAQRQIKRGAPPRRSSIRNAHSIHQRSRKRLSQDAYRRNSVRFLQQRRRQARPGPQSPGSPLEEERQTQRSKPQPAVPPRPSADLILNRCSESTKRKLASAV
Description: Neutrophil-differentiated HL-60 cells (2 × 10^6 cells/mL) were incubated at 37 °C in a humid atmosphere with 5% CO2 and 50 μM of the different acrylonitrile compounds, then PMA 0.8 μM was added and incubated for 1 h to induce the activation of the enzyme NADPH oxidase. As a positive inhibition control, VAS2870 (20 μM) was used. Another two controls were performed: one with cells activated by PMA in the presence of DMSO, and the other (NA, non-activated) with cells in the absence of PMA and the acrylonitrile compounds. In 15 mL conical tubes, 5 mL of cell suspension from each treatment and control condition was transferred at 2 × 10^6 cells/mL and centrifuged at 1000 rpm at 4 °C for 10 min. The supernatant was then discarded, and each pellet was re-suspended in 2 mL of a 4% PBS solution with 2 mM EGTA and 0.25 mM PMSF frozen at −80 °C for 10 min. Then each pellet was thawed on ice. […]
The chemiluminescence analysis of lucigenin derivatives was used to determine the activity of NADPH oxidase in a suspension of membrane preparations of HL-60 cells. […] Chemiluminescence was measured for 1 h at 2 min intervals with a Synnergy H1 hybrid luminometer multi-mode microplate reader and GEN5 program (Biotek Instruments, Inc., Winooski, VT, USA). […] The activity was expressed as relative units of luminescence per second, relative to the control.

[1] = tested on: cardiomyocytes isolated from mdx mice; assay: NOX2-mediated ROS production (DCF-DA, confocal) in mdx cardiomyocytes; type: cell-based, mouse; conditions: 1 µM, vs control
Source text: Cardiomyocytes were isolated from mdx mice (C57BL/10ScSn-DMDmdx/J, stock number 001801M, Jackson Laboratories, Bar Harbor, […], USA). Male mdx mice of 19 months of age were used, which were housed in individual cages with water and food ad libitum. All the procedures were adjusted to the “Guide for the Care and Use of Laboratory Animals” (1996) of the National Institute of Health and were approved by the Institutional Committee for Animal Care and Use of the Universidad de Talca. Mice were pre-medicated with heparin i.p. (200U.) and then sacrificed by cervical dislocation. The heart was rapidly removed, cannulated through the aorta, and retrogradely perfused in a steady flow (2 mL/min) at 37 °C. The hearts were initially perfused for 10 min with a Ca^2+-free bicarbonate buffer solution containing (in mM) 120 NaCl; 5.4 KCl; 1.2 MgSO4; 1.2 NaH2PO4; 5.6 glucose; 20 NaHCO3; 10 BDM, and 5 taurine, bubbled with a 95% O2–5% CO2 mixture. Enzyme digestion was performed with collagenase type II (1 mg/mL; Worthington Biochemical Corp., Lakewood, NJ, USA) and protease type XIV (0.1 mg/mL; Sigma-Aldrich) as previously reported. Isolated cardiomyocytes were transferred to 1.5 mL Eppendorf tubes and preincubated with the heteroaryl acrylonitrile compounds.
Cardiomyocytes isolated from mdx mice were transferred to Eppendorf tubes to be incubated with 1 μM of the indole heteroaryl-acrylonitrile derivatives for 30 min, protected from light, at room temperature. VAS2870 (20 μM) was used as a positive control for NOX2 inhibition. 2′,7′-dichlorofluorescein diacetate (DCF-DA) (10 μM) was then added and incubated for 15 min. Subsequently, it was allowed to sediment by gravity to remove the supernatant, and the pellets obtained were in a phosphate saline solution (PBS). 200 μL of the cell suspension were placed on pre-treated polylysine slides (Thermo Fischer, USA) and fixed with 2% paraformaldehyde (Sigma-Aldrich®, St. Louis, MO, USA) for 10 min at 4 °C. […] From the acquired images, the fluorescence intensity was quantified at 495 nm, and the data were reported as fluorescence intensity per pixel.

ROS production, lucigenin chemiluminescence (in words) (NADPH oxidase (NOX2)) | SMILES | DCF fluorescence intensity, NOX2-derived ROS (in words) [1]
significantly reduce ROS production | N#C/C(=C\c1cc(-c2ccccc2)on1)C(=O)c1c[nH]c2ccccc12 [Compound C6] | significant decrease in fluorescence intensity
significantly reduce ROS production | N#C/C(=C\c1ccncc1)C(=O)c1c[nH]c2ccccc12 [Compound C14] | significant decrease in fluorescence intensity
